IC50 data for 14 molecules are collected here from patent US20230295182A1, “SPIRO DERIVATIVES OF ALPHA-D-GALACTOPYRANOSIDES” (Idorsia Pharmaceuticals Ltd, priority 2020, published 2023).

One experiment addresses human Gal-3 (hGal-3) (Homo sapiens (Human), UniProt P17931). The experiment in a line: Competitive binding assay: biotinylated hGal-3 to microplate-adsorbed asialofetuin (ASF). The following applies: Activity on hGal-3; binding to ASF-coated plates, 3 hours at 4° C.; mean values. In outline: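 Biotinylated hGal-3 (300-1000 ng/mL) binding to plate-adsorbed asialofetuin, with DMSO-diluted compound added, incubated 3 h at 4 °C. After washing, bound protein detected with streptavidin-peroxidase (80 ng/mL, 1 h, 4 °C) and ABTS substrate, read spectrophotometrically. IC50 given as mean of several measurements.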

A further experiment concerns the target human Gal-1 (hGal-1) (Homo sapiens, UniProt P09382). The experiment in a line: Competitive binding assay: biotinylated hGal-1 to microplate-adsorbed asialofetuin (ASF). The following applies: Activities on hGal-1; binding to ASF-coated plates, 3 hours at 4° C.; mean values; read-out: Gal-1 IC50. A digest of the protocol: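 Plate-adsorbed asialofetuin is incubated 3 h at 4 °C with biotinylated hGal-1, optionally its all-serine-substituted cysteine variant, plus compound dilutions. ABTS color after 1 h streptavidin-peroxidase (80 ng/mL) at 4 °C reports binding. Reported IC50 is a mean across repeat runs.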

human Gal-1 (hGal-1), sequence (P09382 2-135 limits assumed): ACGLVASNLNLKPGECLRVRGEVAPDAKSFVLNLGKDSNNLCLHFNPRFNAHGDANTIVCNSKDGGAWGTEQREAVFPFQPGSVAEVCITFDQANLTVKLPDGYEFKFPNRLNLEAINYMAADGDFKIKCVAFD
human Gal-3 (hGal-3), sequence (P17931 whole entry): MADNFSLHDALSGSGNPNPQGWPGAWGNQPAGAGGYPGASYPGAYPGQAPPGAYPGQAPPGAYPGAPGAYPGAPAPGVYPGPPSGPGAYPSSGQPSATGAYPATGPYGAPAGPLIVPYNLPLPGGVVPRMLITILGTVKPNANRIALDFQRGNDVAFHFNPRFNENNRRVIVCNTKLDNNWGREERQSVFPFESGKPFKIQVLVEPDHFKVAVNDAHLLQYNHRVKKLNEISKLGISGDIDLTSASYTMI

Turning to `CO[C@@H]1[C@@H](n2cc(-c3cc(F)c(F)c(F)c3)nn2)[C@@H](O)[C@@H](CO)O[C@@H]1CC1=NO[C@]2(CC[C@@H](O)CC2)C1` [Example 2.02, (5s,8S)-3-(((2R,3R,4S,5R,6R)-5-hydroxy-6-(hydroxymethyl)-3-methoxy-4-(4-(3,4,5-trifluorophenyl)-1H-1,2,3-triazol-1-yl)tetrahydro-2H-pyran-2-yl)methyl)-1-oxa-2-azaspiro[4.5]dec-2-en-8-ol], the IC50 at human Gal-3 (hGal-3) turned out to be 700 nM; at human Gal-1 (hGal-1), 5100 nM.
On to `CO[C@@H]1[C@@H](n2cc(-c3cc(F)c(F)c(Cl)c3)nn2)[C@@H](O)[C@@H](CO)O[C@@H]1CC1=NOC2(CCCCC2)C1` [Example 1.31, (2R,3R,4S,5R,6R)-6-((1-oxa-2-azaspiro[4.5]dec-2-en-3-yl)methyl)-4-(4-(3-chloro-4,5-difluorophenyl)-1H-1,2,3-triazol-1-yl)-2-(hydroxymethyl)-5-methoxytetrahydro-2H-pyran-3-ol], for which the IC50 on human Gal-3 (hGal-3) was 260 nM; on human Gal-1 (hGal-1), 970 nM.
The like results for `CO[C@@H]1[C@@H](n2cc(-c3ccc(F)c(F)c3F)nn2)[C@@H](O)[C@@H](CO)O[C@@H]1CC1=NOC2(CCC(C(C)(C)O)CC2)C1` (stereo partly drawn) [Example 1.48, (2R,3R,4S,5R,6R)-2-(hydroxymethyl)-6-((8-(2-hydroxypropan-2-yl)-1-oxa-2-azaspiro[4.5]dec-2-en-3-yl)methyl)-5-methoxy-4-(4-(2,3,4-trifluorophenyl)-1H-1,2,3-triazol-1-yl)tetrahydro-2H-pyran-3-ol] were, in that order, 490 nM and 2600 nM.
Consider `CO[C@@H]1[C@@H](n2cc(-c3cc(F)c(F)c(F)c3)nn2)[C@@H](O)[C@@H](CO)O[C@@H]1CC1=NOC2(CCC2)C1` [Example 1.10, (2R,3R,4S,5R,6R)-6-((5-oxa-6-azaspiro[3.4]oct-6-en-7-yl)methyl)-2-(hydroxymethyl)-5-methoxy-4-(4-(3,4,5-trifluorophenyl)-1H-1,2,3-triazol-1-yl)tetrahydro-2H-pyran-3-ol], for which the half-maximal inhibitory concentration (IC50) on human Gal-3 (hGal-3) stood at 620 nM; on human Gal-1 (hGal-1) it was 2200 nM.
The like results for `CO[C@@H]1[C@@H](n2cc(-c3cc(F)c(F)c(F)c3)nn2)[C@@H](O)[C@@H](CO)O[C@@H]1CC1=NO[C@]2(CC[C@H](NC(C)=O)CC2)C1` [Example 2.04, N-((5r,8R)-3-(((2R,3R,4S,5R,6R)-5-hydroxy-6-(hydroxymethyl)-3-methoxy-4-(4-(3,4,5-trifluorophenyl)-1H-1,2,3-triazol-1-yl)tetrahydro-2H-pyran-2-yl)methyl)-1-oxa-2-azaspiro[4.5]dec-2-en-8-yl)acetamide] were, in that order, 61 nM and 810 nM.
In the same order, the values of `CC(=O)O[C@@H]1[C@@H](n2cc(-c3ccc(C)c(F)c3F)nn2)[C@@H](O)[C@@H](CO)O[C@@H]1CC1=NOC2(CCOCC2)C1` [Example 1.01, (2R,3R,4S,5R,6R)-2-((1,8-dioxa-2-azaspiro[4.5]dec-2-en-3-yl)methyl)-4-(4-(2,3-difluoro-4-methylphenyl)-1H-1,2,3-triazol-1-yl)-5-hydroxy-6-(hydroxymethyl)tetrahydro-2H-pyran-3-yl acetate] are 61 nM and 4200 nM.
For `CO[C@@H]1[C@@H](n2cc(-c3ccc(C)c(F)c3F)nn2)[C@@H](O)[C@@H](CO)O[C@@H]1CC1=NO[C@]2(CC[C@H](NC(=O)OC(C)(C)C)CC2)C1` [Example 1.43, tert-butyl ((5r,8R)-3-(((2R,3R,4S,5R,6R)-4-(4-(2,3-difluoro-4-methylphenyl)-1H-1,2,3-triazol-1-yl)-5-hydroxy-6-(hydroxymethyl)-3-methoxytetrahydro-2H-pyran-2-yl)methyl)-1-oxa-2-azaspiro[4.5]dec-2-en-8-yl)carbamate], the IC50 at human Gal-3 (hGal-3) was 15 nM; on human Gal-1 (hGal-1) it was 1240 nM.
Consider `CO[C@@H]1[C@@H](n2cc(-c3cc(F)c(F)c(F)c3)nn2)[C@@H](O)[C@@H](CO)O[C@@H]1CC1=NOC2(CCC(=NO)CC2)C1` (stereo partly drawn) [Example 2.18, 3-(((2R,3R,4S,5R,6R)-5-hydroxy-6-(hydroxymethyl)-3-methoxy-4-(4-(3,4,5-trifluorophenyl)-1H-1,2,3-triazol-1-yl)tetrahydro-2H-pyran-2-yl)methyl)-1-oxa-2-azaspiro[4.5]dec-2-en-8-one oxime], for which the figures for the IC50 on human Gal-3 (hGal-3) and at human Gal-1 (hGal-1) were 320 nM and 2900 nM, respectively.
In the same order, the values of `CO[C@@H]1[C@@H](n2cc(-c3ccc(Cl)c(F)c3F)nn2)[C@@H](O)[C@@H](CO)O[C@@H]1CC1=NO[C@]2(CC[C@H](C(C)(C)O)CC2)C1` [Example 1.64, (2R,3R,4S,5R,6R)-4-(4-(4-chloro-2,3-difluorophenyl)-1H-1,2,3-triazol-1-yl)-2-(hydroxymethyl)-6-(((5r,8R)-8-(2-hydroxypropan-2-yl)-1-oxa-2-azaspiro[4.5]dec-2-en-3-yl)methyl)-5-methoxytetrahydro-2H-pyran-3-ol] are 490 nM and 2400 nM.
The like results for `CO[C@@H]1[C@@H](n2cc(-c3cc(F)c(F)c(F)c3)nn2)[C@@H](O)[C@@H](CO)O[C@@H]1CC1=NO[C@]2(CC[C@H](C(C)C)CC2)C1` [Example 1.27, (2R,3R,4S,5R,6R)-2-(hydroxymethyl)-6-(((5r,8R)-8-isopropyl-1-oxa-2-azaspiro[4.5]dec-2-en-3-yl)methyl)-5-methoxy-4-(4-(3,4,5-trifluorophenyl)-1H-1,2,3-triazol-1-yl)tetrahydro-2H-pyran-3-ol] were, in that order, 1100 nM and 18800 nM.
For the molecule `CO[C@@H]1[C@@H](n2cc(-c3ccc(C)c(F)c3F)nn2)[C@@H](O)[C@@H](CO)O[C@@H]1CN1CC2(CCOCC2)OC1=O` [Example 3.03, 3-(((2R,3R,4S,5R,6R)-4-(4-(2,3-difluoro-4-methylphenyl)-1H-1,2,3-triazol-1-yl)-5-hydroxy-6-(hydroxymethyl)-3-methoxytetrahydro-2H-pyran-2-yl)methyl)-1,8-dioxa-3-azaspiro[4.5]decan-2-one], the 50% inhibitory concentration (IC50) on human Gal-3 (hGal-3) was 90 nM; on human Gal-1 (hGal-1), 2300 nM.
In the same order, the values of `CO[C@@H]1[C@@H](n2cc(-c3cc(F)c(F)c(F)c3)nn2)[C@@H](O)[C@@H](CO)O[C@@H]1CC1=NOC2(CCC(C)(C)C2)C1` (stereo partly drawn) [Example 1.32, (2R,3R,4S,5R,6R)-6-((7,7-dimethyl-1-oxa-2-azaspiro[4.4]non-2-en-3yl)methyl)-2-(hydroxymethyl)-5-methoxy-4-(4-(3,4,5-trifluorophenyl)-1H-1,2,3-triazol-1-yl)tetrahydro-2H-pyran-3-ol] are 340 nM and 3400 nM.
In the case of `NC(=O)O[C@@H]1[C@@H](n2cc(-c3cc(F)c(F)c(F)c3)nn2)[C@@H](O)[C@@H](CO)O[C@@H]1CC1=NOC2(CCCCC2)C1` [Example 1.73, (2R,3R,4S,5R,6R)-2-((1-oxa-2-azaspiro[4.5]dec-2-en-3-yl)methyl)-5-hydroxy-6-(hydroxymethyl)-4-(4-(3,4,5-trifluorophenyl)-1H-1,2,3-triazol-1-yl)tetrahydro-2H-pyran-3-yl carbamate], the IC50 on human Gal-3 (hGal-3) came to 110 nM; at human Gal-1 (hGal-1) it was 6500 nM.
For the molecule `CCC(CC)NC1CCC2(CC1)CC(C[C@H]1O[C@H](CO)[C@H](O)[C@H](n3cc(-c4cc(F)c(F)c(F)c4)nn3)[C@H]1OC)=NO2` (stereo partly drawn) [Example 2.14, (2R,3R,4S,5R,6R)-2-(hydroxymethyl)-5-methoxy-6-((8-(pentan-3-ylamino)-1-oxa-2-azaspiro[4.5]dec-2-en-3-yl)methyl)-4-(4-(3,4,5-trifluorophenyl)-1H-1,2,3-triazol-1-yl)tetrahydro-2H-pyran-3-ol], the IC50 is 390 nM on human Gal-3 (hGal-3) and 2600 nM at human Gal-1 (hGal-1).

In general, IC50 refers to the concentration that inhibits the measured activity by half.
